The source of these data is PubChem BioAssay (NCI).

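96-well plates; 48 h exposure; 5 concentrations. Endpoints by linear interpolation between flanking doses. Not reached: highest tested concentration assigned. Abbreviation: GI50, concentration required for 50% inhibition of growth. At the TGI there is no net growth.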

Common to all, as to experiment: NCI tumour cell line growth inhibition, 48 h
For experiment [1], the system named is ACHN renal.
Experiment [2] deals with EKVX NSCLC.
Experiment [3] deals with HT29 colon.
Experiment [4] concerns LOX IMVI melanoma.
For experiment [5], the system named is OVCAR-8 ovarian.
Experiment [6] has as its system SN12C renal.
For experiment [7], the system named is SNB-19 CNS.
Experiment [8] deals with U251 CNS.
Experiment [9] has as its system UACC-62 melanoma.
For experiment [10], the system named is K-562 leukemia.

`O=C(Nc1ccc(F)cc1F)c1cc(Cl)ccc1O`: the GI50 in experiment [1] was 2.09 µM; in experiment [2], 1.94 µM; in experiment [3] it was 3.62 µM; in [4] it was 1.73 µM; in experiment [5], 2.38 µM; in [6], 1.29 µM. The GI50 in experiment [7] is 1.45 µM; in experiment [8], 1.38 µM; in [9], 0.489 µM. The TGI in [1] was 7.68 µM; in experiment [2], 8.38 µM; in experiment [3], over 100 µM; in experiment [4], 12.6 µM; in [5], 13.3 µM; in experiment [6] it was 8.1 µM. For the same compound, the TGI was over 100 µM in [7], 16 µM in experiment [8] and 3.03 µM in experiment [9].
Take `N#C/C(=C\c1cccc(O)c1O)C(N)=O`: the TGI in experiment [1], in experiment [2], in experiment [3], in experiment [10], in experiment [5] and in experiment [6] was over 100 µM each time. In addition, the TGI in experiment [7], in [8] and in [9] was over 100 µM throughout.
Turning to `Cc1c(C(=O)/C=C/C=C/c2ccccc2)[n+](=O)c2ccccc2n1[O-]`, the TGI is 60.8 µM in experiment [1]; over 100 µM in experiment [2]; over 100 µM in [10]; over 100 µM in experiment [4]; over 100 µM in experiment [5]; 73.2 µM in experiment [6]. Further, the TGI in experiment [7] was over 100 µM; in [8], over 100 µM; in experiment [9], 30.2 µM.
With `CCc1cccc(C)c1N1C(=O)C(=O)C(c2nc3ccccc3o2)C(=O)C1=O`, the TGI in [1], in experiment [2], in experiment [3], in experiment [10], in experiment [5] and in experiment [6] was over 100 µM each time. For the same compound, the TGI in experiment [7], in experiment [8] and in [9] was over 100 µM in each case.
As for `O=C1OC(c2ccccc2)=N/C1=C\c1ccc(Oc2ccc(Cl)c(Cl)c2)cc1`, the TGI is over 100 µM in experiment [1]; over 100 µM in experiment [2]; over 100 µM in experiment [3]; 73.6 µM in experiment [10]; 46 µM in experiment [5]; over 100 µM in experiment [6]. Also, the TGI in experiment [7] was over 100 µM; in experiment [8], 65.9 µM; in experiment [9], 52.3 µM.
Take `O=C(O)c1cc(=O)c2c([nH]c3ccccc32)s1`: the TGI in experiment [1], in [2], in experiment [10], in experiment [5], in experiment [6] and in experiment [7] was over 100 µM in each case. In [9], this compound came in with a TGI of over 100 µM.
For `O=[N+]([O-])c1cccc(-c2nc(-c3ccccc3)c(-c3ccccc3)[nH]2)c1`, the TGI in experiment [2], in experiment [10], in experiment [4], in experiment [5], in experiment [6] and in [7] was over 100 µM throughout. Moreover, the TGI in experiment [8] and in experiment [9] was over 100 µM throughout.
As for `[O-]c1ccccc1C=Nc1ccc2c(c1)CCC2.[O-]c1ccccc1C=Nc1ccc2c(c1)CCC2.[O]=[U+2]=[O]`, the GI50 in experiment [1] is 70.3 µM; in experiment [2] it was over 100 µM; in [3] it was over 100 µM; in [10], 11.8 µM; in experiment [4] it was 9.92 µM; in [5], 59.3 µM. In addition, the GI50 in experiment [6] was over 100 µM; in experiment [7], 27.9 µM; in [9], over 100 µM. Also, the TGI in experiment [1], in [2], in experiment [3], in [10], in [4] and in experiment [5] was over 100 µM in each case. For the same compound, the TGI in experiment [6], in experiment [7] and in [9] was over 100 µM throughout.
Regarding `CCCCCCCC(=O)OCCCC1[C@]2(C)CC[C@@]3(C)C([C@H](C)CCC=C(C)C)CC[C@]3(C)C2CC[C@]12OC2(C)C` (stereo not given in full), the GI50 in [1] is 22.9 µM; in experiment [2] it was 49.7 µM; in experiment [3] it was 42.3 µM; in experiment [10], 44.1 µM; in [5], 64 µM; in experiment [7] it was 34.5 µM. For the same compound, the GI50 in experiment [8] was 27.7 µM; in [9] it was 17.6 µM. In addition, the TGI in experiment [1] was 45.4 µM; in [2] it was over 100 µM; in experiment [3], over 100 µM; in experiment [10] it was over 100 µM; in experiment [5] it was over 100 µM; in [7], 97.6 µM. Moreover, the TGI came to 93.3 µM in experiment [8] and 78 µM in [9].
For the compound `COc1ccc(Nc2nc3ccccc3c3occc23)cc1`, the GI50 in experiment [1] is 5.35 µM; in experiment [2], 9.96 µM; in experiment [10], 6.74 µM; in experiment [4] it was 0.649 µM; in experiment [5], 8.51 µM; in experiment [6], 7.37 µM. The GI50 in [7] was 7.62 µM; in experiment [8], 5.13 µM; in experiment [9], 5.48 µM. Moreover, the TGI in [1] was 13.7 µM; in [2], over 50 µM; in experiment [10] it was over 50 µM; in experiment [4] it was 5.32 µM; in experiment [5], 22.7 µM; in experiment [6] it was 17.5 µM. For the same compound, the TGI in experiment [7] stood at 16.5 µM; in experiment [8] it was 11.7 µM; in experiment [9], 11.4 µM.
As to `C[Si](C)(C)C(CCCCSc1ccccc1)(Sc1ccccc1)Sc1ccccc1`, the TGI in [1], in experiment [2], in experiment [10], in experiment [4], in experiment [5] and in experiment [6] was over 100 µM throughout. Moreover, the TGI in [7], in experiment [8] and in experiment [9] was over 100 µM throughout.
